Reference: patent US12385042B2, “Cell-penetrating peptides” (VECTIOPEP OÜ, priority 2019, dated 2025)
Where a SMILES comes first, the peptide text is derived from it. Bridges are numbered along the chain shown (N, C = ends). Roman numbers before positions name the chains, in order. [ ]: non-standard residue; d: D form. The star is where a group is joined. Arachidoyl = CCCCCCCCCCCCCCCCCCCC(=O)*; Stearoyl = CCCCCCCCCCCCCCCCCC(=O)*; Orn = NCCC[C@H](N)C(=O)O

How the values were obtained:
murine red blood cells = assay: Membrane activity assay on murine red blood cells: hemolysis; assay type: cell-based, mouse; conditions: for hemolytic activity of free peptide (in words): up to 10 uM
Protocol: For evaluation of membrane activity of peptides, hemolysis assay was used. For this whole blood was collected from mouse (adult, BALB/c) saphenous vein into a heparinized collection tube. Blood was centrifuged (2300× g, 15 min) to separate cells (red blood cells-RBC) from the plasma. RBCs were washed according to following procedures.
RBCs were washed with 10 ml 0.9% NaCl saline and centrifuged (600× g, 15 min). Supernatant was discarded after each centrifugation. This was repeated at least 3 times. RBCs were re-suspended in 5 ml saline and distributed equally to tubes and centrifuged (600× g, 15 min). The cells were washed and re-suspended in 2× PBS with the required pH (pH 5.5-7.5). The hemoglobin content in stocks was measured after lysis of cells with equal volume of 0.1% Triton X100 supplemented with 5% glucose. The cell suspension was diluted accordingly for each pH value to obtain similar concentration range of hemoglobin in stocks. To each 100 ul of peptide solution 100 ul of 10% glucose was added, mixed, and equal volume (200 ul) of RBC in 2× PBS were added and gently mixed. Peptide solution with RBCs was incubated at 37° C. for 1 h with gentle mixing (max 300 rpm) after which samples were centrifuged to pellet intact cells from the solution. Hemoglobin from lysed cells was determined from each sample from the supernatant on transparent 96-well plates by measuring the absorbance at 540 nm.
Controls were incubated in similar manner as samples. As a non-hemolysis control mQ supplemented with glucose (0%) was used and for hemolytic control 0.1% TritonX-100 with glucose (100%) was used (cells are suspended in 2× PBS before addition). Final percent was calculated as follows: […]
For hemolytic concentration determination 2× PBS at pH 7.5 was used for incubation and 1× PBS at pH 7.5 was used for washing. Everything else is as described in previous paragraph.

[1] = tested on: U87 MG-luc2 human glioma cells, stably expressing luc2; assay: Luciferase gene downregulation by CPP/siRNA (siLuc2) complexes; assay type: cell-based; conditions: for Red (%) (reduction, based on remaining luminescence on U87 cells post-treatment): siRNA against luciferase
Protocol: (§1) For assessing the siRNA mediated RNAi, CHO-GFP or U87-luc2 cells (5×10^5 cells per well) were seeded on a 24-well plate a day prior to the experiment and grown in serum containing media. On experiment day, prior to adding pre-formed complexes ( 1/10th of the final volume per well), media was replaced with fresh serum containing medium.
(§2) For complex formation, peptide was mixed with luc2 siRNA (sense 5′-[…]-3′ (SEQ ID NO:7), antisense 5′-[…] 3′ (SEQ ID NO:8), Metabion, Germany) or with siRNA against GFP (5′-[…] (SEQ ID NO:9), 3′-[…] (SEQ ID NO:10)) in mQ water (pH 5.3-6.3) using peptide to siRNA molar ratios (MR is the ratio of peptide to siRNA) […] and incubated at RT for 1 h. For siLuc2, the final concentration in media was 25 nM and for siGFP 100 nM. Cells were co-incubated with complexes for 4 h (37° C., 5% CO2), thereafter fresh serum containing media was added and followed by further incubation (20 h for siLuc2 or 44 h for siGFP complexes). Luciferase gene downregulation was measured from cell lysates with Promega luciferase assay system (Promega, Sweden) in combination with GLOMAX 96 microplate luminometer equipped with GLOMAX 1.9.2 software (Promega). GFP was measured after treatment from cell lysates on black 96-well plates by measuring total fluorescence (Symergy MX, BioTek Instruments, USA equipped with Gen5 1.10 software). The results were normalized to the protein content of each sample (DC Protein Assay, BioRad, USA).
Luciferase activity was determined as described in previous paragraph.
For determination of pH dependency on the transfection efficiency, complexes were formed at MR30, incubated and diluted before addition to cells to obtain siRNA final concentration 10 nM in transfection media. HEPES buffer supplemented with 10% FBS was used as transfection media. Complexes were co-incubated with cells for 4 h and then media was replaced with cell growth media. After further 20 h incubation cells were lysed and analyzed as described previously.
The experiment was carried out in serum containing media (10% FBS). CPP/siRNA complexes were formed at different molar ratios with siRNA concentration kept constant (50 nM in transfection media). Luminescence from luciferin-luciferase reaction was measured at 24 hours post-treatment from cell lysate. Results were normalized to protein content and luminescence values from untreated cells (100%).

[2] = tested on: CHO stably expressing green fluorescent protein (GFP); assay: GFP gene downregulation by CPP/siGFP complexes (lysate fluorescence, FACS, confocal); assay type: cell-based; conditions: for downregulation of GFP (average, cell lysate fluorescence): siGFP 100 nM; for cells with downregulated reporter gene (GFP signal below threshold), FACS: CHO-GFP, CPP/siGFP complexes
Protocol: as §1, §2
For flow cytometry analysis (FACS) analysis CHO-GFP cells were seeded and treated as described previously. After incubation, cells were washed with 1× PBS and detached from plates with trypsin-EDTA (0.25%), and re-suspended in PBS supplemented with FBS (5%) and transferred to transparent U-bottom 96-well plates. FACS was carried out with BD LSR II flow cytometer (BD Biosciences, San Jose, CA, USA) equipped with a 488 nm argon laser. Population of viable cells was determined from scatter plot: forward scattered plot (FSC) vs. side scattered light (SSC) plot. A minimum of 10,000 events from the viable cell population per sample were analyzed using BD FACS Diva software. Results are shown as the population with GFP signal lower than that of 0.1% of untreated cells.
For confocal microscopy 2×10^5 cells per chamber were seeded on NUNC 8-chamber plates. After treatment with complexes (25 ul of pre-formed CPP/siRNA complexes added to cells in 225 ul serum containing media), incubated (48 h) and GFP florescence images of cells were captured using confocal microscope Zeiss LSM 710 and excitation at 488 nm (493-616 filter).

Proteinase K = target: T1, Proteinase K (Parengyodontium album, UniProt P06873); assay: Stability of CPP/siRNA complexes to degradation by Proteinase K; assay type: physicochemical; conditions: Proteinase K >14.4 U per well
T1 construct: purchased Thermo Scientific, USA
Protocol: To assess protection of siRNA from enzymatic degradation, after addition of PG dilution and initial measurement to set a starting point, Proteinase K (Thermo Scientific, USA) was added (>14 U/ml, 20 ul of mixture per well containing dilution of 120 ul of enzyme in 1 ml), co-incubated with complexes and fluorescence was measured over a 10 h period.

[3] = Fluorescent dye (PicoGreen) intercalation and heparin displacement assay of CPP/siRNA complexes; assay type: physicochemical; conditions: for accessibility of siRNA in complexes (dye intercalation): MR30, no heparin; for stability of complexes to heparin displacement (in words): complexes pre-formed at MR30
Protocol: Complexation of siRNA and CPPs was assessed by Quant-iT™ PicoGreen® (PG) (Thermo Fisher Scientific, USA) assay in mQ water. Complexes were prepared as described previously, following addition of diluted PG. For detection, complexes (⅕ of volume), water (3/5) and PG (1/5) working dilution was incubated for 5 minutes and fluorescence was measured by fluorimeter (λex=492 nm, λem=535 nm) (SynergyMx, BioTek). For heparin displacement, instead of water, heparin salt solution at different concentrations were used and complexes incubated at 37° C. for 30 min before addition of PG dilution. Complex formation was also confirmed by gel electrophoresis (details in section 2.11).

U87 cells = assay: MTS toxicity assay; assay type: cell-based, human
Protocol: Cell proliferation was determined with the CellTiter 96® Aqueous Non-Radioactive Cell Proliferation Assay (MTS) (Promega Biotech AB, Sweden) according to the manufacturer's instructions. For this 1×10^5 U87 cells were seeded 1 day prior to experiment on transparent 96-well plates. On experiment day, media was replaced with 90 ul of fresh media and to the cells complexes formed at MR30 (both with 25 nM and 100 nM final siRNA concentrations) or free peptide at the range of 0.5-4 uM final concentrations were added. Cells were treated with complexes for 20 h. MTS was added according to the manufacturer's protocol. The absorbance of formazan product was measured at 490 nm with Tecan Sunrise microplate absorbance reader (Tecan Group Ltd, Switzerland) and percentage of viable cells was calculated using GraphPad Prism software 5.0 (Graphpad Software, CA, USA).

T1 sequence (P06873 106-384): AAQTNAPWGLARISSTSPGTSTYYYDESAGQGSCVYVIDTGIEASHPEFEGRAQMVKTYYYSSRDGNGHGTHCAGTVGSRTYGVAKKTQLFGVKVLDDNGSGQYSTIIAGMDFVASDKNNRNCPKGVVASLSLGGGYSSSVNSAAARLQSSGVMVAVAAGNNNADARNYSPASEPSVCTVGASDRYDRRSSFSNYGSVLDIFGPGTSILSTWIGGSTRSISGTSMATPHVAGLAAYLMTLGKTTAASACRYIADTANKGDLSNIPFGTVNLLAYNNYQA

SMILES | hemolytic activity of free peptide (in words) (murine red blood cells) | pH dependent hemolytic activity (in words) (murine red blood cells; peptide 0.75 uM, buffer pH 5.5-7.5) | Red (%) (reduction, based on remaining luminescence on U87 cells post-treatment) ([1]; CPP/siRNA complexes) | downregulation of GFP (average, cell lysate fluorescence) [2] | stability of complexes to proteinase K (in words) (Proteinase K) | accessibility of siRNA in complexes (dye intercalation) [3] | stability of complexes to heparin displacement (in words) [3] | remaining reporter activity ([1]; molar ratio 30 (MR30, peptide to siRNA), untreated cells 100%) [%] | concentration at which free peptide is toxic to cells (MTS) (U87 cells) [µM] | cells with downregulated reporter gene (GFP signal below threshold), FACS [2] | luciferase downregulation efficiency (in words) ([1]; CPP/siRNA complexes, comparison between CPPs) | downregulation of reporter gene on cells in buffer, pH dependence ([1]; HEPES buffer pH 6.0 vs 7.4, siRNA 10 nM) | IC50 ([1]; complexes formed at MR30, average, read-out: IC50 (siRNA concentration), luciferase downregulation) [nM] | GFP signal in confocal images ([2]; live cells treated with CPP/siGFP complexes)
CCCCCCCCCCCCCCCCCCCC(=O)N[C@@H](Cc1c[nH]cn1)C(=O)N[C@@H](Cc1c[nH]cn1)C(=O)N[C@@H](Cc1c[nH]cn1)C(=O)N[C@@H](Cc1c[nH]cn1)C(=O)N[C@@H](Cc1c[nH]cn1)C(=O)N[C@@H](Cc1c[nH]cn1)C(=O)NCC(=O)NCCC[C@H](N)C(=O)N[C@H](C(=O)N[C@@H](CC(C)C)C(=O)N[C@@H](CC(C)C)C(=O)N[C@@H](CCCCN)C(=O)N[C@@H](C)C(=O)N[C@@H](CC(C)C)C(=O)N[C@@H](CCCCN)C(=O)N[C@@H](C)C(=O)N[C@@H](CC(C)C)C(=O)N[C@@H](C)C(=O)N[C@@H](CCCCN)C(=O)N[C@@H](C)C(=O)N[C@H](C(=O)N[C@@H](CC(C)C)C(N)=O)[C@@H](C)CC)[C@@H](C)CC [NF705] (I: H-[Orn]ILLKALKALAKAIL-NH2 / II: Arachidoyl-HHHHHHG; amide I:1-II:C) | significantly higher | markedly hemolytic already at pH 7.5 | 52 | lower efficiency than H6-C20 | formed the most stable complexes with siRNA resistant to proteinase K | low accessibility of siRNA | significantly higher stability to heparin displacement than NF70 peptide and even NF72 peptide | – | – | – | – | – | – | –
CCCCCCCCCCCCCCCCCC(=O)N[C@@H](Cc1c[nH]cn1)C(=O)N[C@@H](Cc1c[nH]cn1)C(=O)N[C@@H](Cc1c[nH]cn1)C(=O)N[C@@H](Cc1c[nH]cn1)C(=O)N[C@@H](Cc1c[nH]cn1)C(=O)N[C@@H](Cc1c[nH]cn1)C(=O)NCC(=O)NCCC[C@H](N)C(=O)N[C@H](C(=O)N[C@@H](CC(C)C)C(=O)N[C@@H](CC(C)C)C(=O)N[C@@H](CCCCN)C(=O)N[C@@H](C)C(=O)N[C@@H](CC(C)C)C(=O)N[C@@H](CCCCN)C(=O)N[C@@H](C)C(=O)N[C@@H](CC(C)C)C(=O)N[C@@H](C)C(=O)N[C@@H](CCCCN)C(=O)N[C@@H](C)C(=O)N[C@H](C(=O)N[C@@H](CC(C)C)C(N)=O)[C@@H](C)CC)[C@@H](C)CC [NF704] (I: H-[Orn]ILLKALKALAKAIL-NH2 / II: Stearoyl-HHHHHHG; amide I:1-II:C) | – | – | 82 | lower efficiency than H6-C20 | – | low accessibility of siRNA | not as resistant to heparin displacement as H6^1-C20 | 19 | 10 | 40% | – | – | – | –
CCCCCCCCCCCCCCCCCC(=O)N[C@@H](C)C(=O)NCC(=O)N[C@@H](Cc1ccc(O)cc1)C(=O)N[C@@H](CC(C)C)C(=O)N[C@@H](CC(C)C)C(=O)NCC(=O)N[C@@H](CCCCNC(=O)[C@H](CCCCNC(=O)[C@H](CCCCNC(=O)CCC(=O)NCCN(C)CCNc1ccnc2cc(C(F)(F)F)ccc12)NC(=O)CCC(=O)NCCN(C)CCNc1ccnc2cc(C(F)(F)F)ccc12)NC(=O)[C@H](CCCCNC(=O)CCC(=O)NCCN(C)CCNc1ccnc2cc(C(F)(F)F)ccc12)NC(=O)CCC(=O)NCCN(C)CCNc1ccnc2cc(C(F)(F)F)ccc12)C(=O)N[C@H](C(=O)N[C@@H](CC(N)=O)C(=O)N[C@@H](CC(C)C)C(=O)N[C@@H](CCCCN)C(=O)N[C@@H](C)C(=O)N[C@@H](CC(C)C)C(=O)N[C@@H](C)C(=O)N[C@@H](C)C(=O)N[C@@H](CC(C)C)C(=O)N[C@@H](C)C(=O)N[C@@H](CCCCN)C(=O)N[C@@H](CCCCN)C(=O)N[C@H](C(=O)N[C@@H](CC(C)C)C(N)=O)[C@@H](C)CC)[C@@H](C)CC [PF6, reference compound] | most hemolytic | – | 84 | highest | significantly lower stability to longer exposure to enzyme | – | only about a half of that in NF55/siRNA complexes | – | – | approximately 70% | most efficient peptides even at low MRs | pH-dependent | 10.4 | detected GFP signal was the lowest
